Literature values in paper PMC9337769 (Science Advances, 2022).

Columns and labels:
PKA-C [1] = details: inhibition of PKA-C; literature value
PKA-C [2] = details: substrate binding cooperativity of ligand-bound PKA-C

Row | SMILES | Ki (PKA-C [1]) [nM] | K-type cooperativity (in words) (PKA-C [2])
1 | O=C(N[C@@H]1CNCCC[C@H]1OC(=O)c1cc(O)c(C(=O)c2c(O)cccc2C(=O)O)c(O)c1)c1ccc(O)cc1 [balanol] | ~4 | 
2 | Nc1ncnc2c1ncn2[C@@H]1O[C@H](COP(=O)(O)OP(=O)(O)CP(=O)(O)O)[C@@H](O)[C@H]1O [adenosine 5′-(β,γ-methylene) triphosphate] |  | lacks K-type cooperativity
3 | O=S(=O)(NCCNCC=Cc1ccc(Br)cc1)c1cccc2cnccc12 [H89, N-[2-(p-bromocinnamylamino)ethyl]-5-isoquinoline sulfonamide] |  | negative K-type cooperativity
